Series [1] in a line: metabolite identification in mouse liver microsomes. The protocol: After centrifugation, the supernatant was subjected to analysis by LCMS, and structures of metabolites were assigned on the basis of their molecular weight and fragmentation pattern.
Compounds were incubated at a concentration of 10 µM with mouse liver microsomes in the presence of an excess of NADPH.
1.1. General Numbering of Metabolites
The metabolites are numbered according to their retention times in the gradient LC-MS analysis in positive […]
ion mode. […] The M number increases […]
consecutively for metabolites with increasing retention time.
To avoid confusion, labelled retention times of a metabolite peak in different injections are the same, which may lead to mismatch between labelled retention time and actual retention time.
General Strategy for Metabolite Identification
The vehicle control and study samples were injected into LC-MS with gradient elution using a Q1 scan method. Searching for potential metabolites was then performed using LightSight software (Applied Biosystems/MDS Sciex) by comparing a total ion current chromatogram of Q1 scan from a study sample with a chromatogram from the corresponding vehicle control sample. The study sample was then injected again to obtain the product ion spectra of potential metabolites using product ion scan methods. The fragmentation patterns of the potential metabolites were then compared to the fragmentation of the parent compound to elucidate the structures of the metabolites.
The assignment of fragments is shown
2.2. Identification of Metabolites in Mouse Liver Microsomal Incubation

A short description of series [2]: pharmacokinetic profiling in mice, oral dosing. The following applies: C57BL/6 mice, 10 mg/kg po. Type of series: in vivo. The protocol: Pharmacokinetic profiling was performed by SAI Life Sciences (Hyderabad, India). […] Prior approval of the Institutional Animal Ethics Committee (IAEC) was obtained before initiation of the study. Healthy male C57BL/6 mice (8–12 weeks old) weighing between 20 and 35 g were procured from (Envigo Research Private Ltd., City, Hyderabad, India). Three mice were housed in each cage. […] Temperature and humidity were recorded by an automatically controlled data logger system. All animals were provided a laboratory rodent diet (Envigo Research Private Ltd., Hyderabad, India). Reverse osmosis water treated with ultraviolet light was provided ad libitum. Eighteen male mice were weighed and divided in to two groups (Group 1 and Group 2), with nine mice in each group. […] The dosing volume administered was 10 mL/kg for the oral route. […] Plasma samples were separated by centrifugation at 4000 rpm for 10 min and stored below −70 °C until bioanalysis. […] The plasma concentration-time data were then used for the pharmacokinetic analysis. A non-compartmental analysis module in Phoenix WinNonlin (Version 6.3, Certara USA Inc., Raleigh, NC, USA) was used to assess the pharmacokinetic parameters. Maximum concentration (Cmax) and time to reach the maximum concentration (Tmax) were the observed values. The areas under the concentration time curve (AUClast and AUCinf) were calculated by linear trapezoidal rule.

The target in a further series is T1, CSNK1E (Homo sapiens, UniProt P49674).
T1 construct: purchased Eurofins DiscoverX (KINOMEscan)
T1 sequence (P49674 whole entry): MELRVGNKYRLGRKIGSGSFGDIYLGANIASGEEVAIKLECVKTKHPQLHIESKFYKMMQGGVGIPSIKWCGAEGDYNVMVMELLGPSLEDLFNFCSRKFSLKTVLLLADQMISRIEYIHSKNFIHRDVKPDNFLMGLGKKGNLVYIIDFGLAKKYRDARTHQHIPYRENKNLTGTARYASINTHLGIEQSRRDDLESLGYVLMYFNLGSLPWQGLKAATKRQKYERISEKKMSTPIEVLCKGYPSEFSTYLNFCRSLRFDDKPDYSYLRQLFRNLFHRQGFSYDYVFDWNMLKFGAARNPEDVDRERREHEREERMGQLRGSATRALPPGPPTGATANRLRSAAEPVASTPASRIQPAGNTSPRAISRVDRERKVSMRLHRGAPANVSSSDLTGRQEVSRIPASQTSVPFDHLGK
In words: KINOMEscan. Type of series: binding. The conditions noted are these: 35 at 1 µM; read-out: % inhibition. The protocol: (§1) KinomeScan Assay on 35 was performed as previously described at EuroFins DiscoverX (Fremont, CA, USA).

The next series deals with T2, MAP3K1 (Homo sapiens, UniProt Q13233).
T2 construct: purchased Eurofins DiscoverX (KINOMEscan)
In words: KINOMEscan. The series is classed as binding. The conditions noted are these: 35 at 1 µM; read-out: % inhibition. The protocol: as §1

The target of a further series is T3, RET(V804M) (Homo sapiens, UniProt P07949, V804M).
T3 construct: purchased Eurofins DiscoverX (KINOMEscan)
Description: KINOMEscan. The series is classed as binding. The following applies: 35 at 1 µM; read-out: % inhibition. The protocol: as §1

A further series deals with T4, TNNI3K (Homo sapiens, UniProt Q59H18).
T4 construct: purchased Eurofins DiscoverX (KINOMEscan)
Description: KINOMEscan. The conditions noted are these: 35 at 1 µM; read-out: % inhibition. Type of series: binding. The protocol:
as §1

For the next series, the target named is T5, MLCK (Homo sapiens, UniProt Q32MK0).
T5 construct: purchased Eurofins DiscoverX (KINOMEscan)
Description: KINOMEscan. Type of series: binding. The following applies: 35 at 1 µM; read-out: % inhibition. The protocol:
as §1

In the next series the target is T6, CAMK2D (Homo sapiens, UniProt Q13557).
T6 construct: purchased Eurofins DiscoverX (KINOMEscan)
Description: KINOMEscan. Type of series: binding. The conditions noted are these: 35 at 1 µM; read-out: % inhibition. The protocol:
as §1

In a further series the target is T7, PIK3CA(E542K) (Homo sapiens, UniProt P42336, E542K).
T7 construct: purchased Eurofins DiscoverX (KINOMEscan)
T7 sequence (P42336 whole entry E542K): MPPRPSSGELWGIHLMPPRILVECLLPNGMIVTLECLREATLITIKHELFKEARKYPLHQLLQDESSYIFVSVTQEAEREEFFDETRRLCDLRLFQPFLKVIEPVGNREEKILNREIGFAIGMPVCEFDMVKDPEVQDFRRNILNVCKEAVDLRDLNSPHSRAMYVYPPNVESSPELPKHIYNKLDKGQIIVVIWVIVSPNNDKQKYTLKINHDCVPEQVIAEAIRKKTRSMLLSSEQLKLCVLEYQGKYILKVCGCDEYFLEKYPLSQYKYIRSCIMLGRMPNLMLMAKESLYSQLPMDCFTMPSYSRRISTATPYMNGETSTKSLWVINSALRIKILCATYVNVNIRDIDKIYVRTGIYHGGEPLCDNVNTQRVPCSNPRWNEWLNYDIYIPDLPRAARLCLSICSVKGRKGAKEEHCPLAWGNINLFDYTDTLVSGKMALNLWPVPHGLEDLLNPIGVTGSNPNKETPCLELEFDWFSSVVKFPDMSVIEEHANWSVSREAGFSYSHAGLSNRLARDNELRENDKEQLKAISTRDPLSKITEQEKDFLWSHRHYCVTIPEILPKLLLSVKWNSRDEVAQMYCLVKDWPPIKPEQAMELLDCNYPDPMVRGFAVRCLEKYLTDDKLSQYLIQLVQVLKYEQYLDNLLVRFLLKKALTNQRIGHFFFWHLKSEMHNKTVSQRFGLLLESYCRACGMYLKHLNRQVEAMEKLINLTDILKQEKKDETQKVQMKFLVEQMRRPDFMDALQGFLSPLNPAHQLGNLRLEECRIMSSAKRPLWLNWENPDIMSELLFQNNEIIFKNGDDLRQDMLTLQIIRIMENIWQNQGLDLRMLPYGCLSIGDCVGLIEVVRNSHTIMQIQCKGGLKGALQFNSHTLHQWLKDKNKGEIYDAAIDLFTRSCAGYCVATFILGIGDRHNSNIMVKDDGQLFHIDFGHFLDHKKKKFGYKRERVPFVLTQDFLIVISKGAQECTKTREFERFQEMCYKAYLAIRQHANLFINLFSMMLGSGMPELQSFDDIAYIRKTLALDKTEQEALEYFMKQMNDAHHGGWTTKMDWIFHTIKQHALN
In words: KINOMEscan. The conditions noted are these: 35 at 1 µM; read-out: % inhibition. The series is classed as binding. The protocol: as §1

Another series addresses T8, BIKE (Homo sapiens, UniProt Q9NSY1).
T8 construct: purchased Eurofins DiscoverX (KINOMEscan)
Description: KINOMEscan. The following applies: 35 at 1 µM; read-out: % inhibition. Type of series: binding. The protocol:
as §1

In a further series the target is T9, MLK1 (Homo sapiens, UniProt P80192).
T9 construct: purchased Eurofins DiscoverX (KINOMEscan)
In words: KINOMEscan. The following applies: 35 at 1 µM; read-out: % inhibition. The series is classed as binding. The protocol:
as §1

The target in another series is T10, YANK3 (Homo sapiens, UniProt Q86UX6).
T10 construct: purchased EuroFins DiscoverX (Fremont, CA, USA)
T10 sequence (Q86UX6 whole entry): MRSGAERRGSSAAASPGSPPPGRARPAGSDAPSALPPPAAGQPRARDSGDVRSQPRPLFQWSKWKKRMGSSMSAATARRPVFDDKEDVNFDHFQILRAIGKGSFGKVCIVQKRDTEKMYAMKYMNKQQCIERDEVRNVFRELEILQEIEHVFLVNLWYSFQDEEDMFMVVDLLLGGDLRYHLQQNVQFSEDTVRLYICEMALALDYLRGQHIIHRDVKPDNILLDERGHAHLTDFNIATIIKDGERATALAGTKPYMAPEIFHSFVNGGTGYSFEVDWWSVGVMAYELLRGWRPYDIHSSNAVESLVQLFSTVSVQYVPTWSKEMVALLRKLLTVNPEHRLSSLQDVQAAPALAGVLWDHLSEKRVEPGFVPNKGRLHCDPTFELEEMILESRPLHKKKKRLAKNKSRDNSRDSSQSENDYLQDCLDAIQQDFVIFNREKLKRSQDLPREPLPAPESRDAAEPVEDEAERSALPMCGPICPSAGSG
Description: KINOMEscan. The series is classed as binding. The following applies: 35 at 1 µM; read-out: % inhibition. The protocol:
as §1

For a further series, the target named is T11, MAP4K2 (Homo sapiens, UniProt Q12851).
T11 construct: purchased Eurofins DiscoverX (KINOMEscan)
In words: KINOMEscan. Type of series: binding. The conditions noted are these: 35 at 1 µM; read-out: % inhibition. The protocol: as §1

The target in a further series is T12, LYN (Homo sapiens, UniProt P07948).
T12 construct: purchased Eurofins DiscoverX (KINOMEscan)
Description: KINOMEscan. The series is classed as binding. The conditions noted are these: 35 at 1 µM; read-out: % inhibition. The protocol: as §1

A further series concerns the target T13, RIOK2 (Homo sapiens, UniProt Q9BVS4).
T13 construct: purchased Eurofins DiscoverX (KINOMEscan)
In words: KINOMEscan. The series is classed as binding. The following applies: 35 at 1 µM; read-out: % inhibition. The protocol:
as §1

The next series deals with T14, STK35 (Homo sapiens, UniProt Q8TDR2).
T14 construct: purchased Eurofins DiscoverX (KINOMEscan)
T14 sequence (Q8TDR2 whole entry): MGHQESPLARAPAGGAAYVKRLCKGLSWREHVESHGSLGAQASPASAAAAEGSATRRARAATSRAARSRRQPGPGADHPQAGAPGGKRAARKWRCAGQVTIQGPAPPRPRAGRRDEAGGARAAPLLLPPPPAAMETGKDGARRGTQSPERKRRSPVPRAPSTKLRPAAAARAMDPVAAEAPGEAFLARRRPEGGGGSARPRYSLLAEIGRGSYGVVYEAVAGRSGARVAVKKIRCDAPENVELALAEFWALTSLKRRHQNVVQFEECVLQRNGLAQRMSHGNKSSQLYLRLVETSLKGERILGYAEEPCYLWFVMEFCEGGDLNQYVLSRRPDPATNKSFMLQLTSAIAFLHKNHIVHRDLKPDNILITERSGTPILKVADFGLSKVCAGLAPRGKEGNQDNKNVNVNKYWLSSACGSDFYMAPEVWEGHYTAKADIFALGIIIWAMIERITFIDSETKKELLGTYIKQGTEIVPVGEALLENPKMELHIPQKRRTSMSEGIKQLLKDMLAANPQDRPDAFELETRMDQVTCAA
Description: KINOMEscan. Type of series: binding. The following applies: 35 at 1 µM; read-out: % inhibition. The protocol:
as §1

Another series has as its target T15, BLK (Homo sapiens, UniProt P51451).
T15 construct: purchased Eurofins DiscoverX (KINOMEscan)
Description: KINOMEscan. Type of series: binding. The conditions noted are these: 35 at 1 µM; read-out: % inhibition. The protocol: as §1

The target of a further series is T16, SBK1 (Homo sapiens, UniProt Q52WX2).
T16 construct: purchased Eurofins DiscoverX (KINOMEscan)
In words: KINOMEscan. Type of series: binding. The conditions noted are these: 35 at 1 µM; read-out: % inhibition. The protocol: as §1

Another series deals with T17, EPHB6 (Homo sapiens, UniProt O15197).
T17 construct: purchased Eurofins DiscoverX (KINOMEscan)
T17 sequence (O15197 32-1021): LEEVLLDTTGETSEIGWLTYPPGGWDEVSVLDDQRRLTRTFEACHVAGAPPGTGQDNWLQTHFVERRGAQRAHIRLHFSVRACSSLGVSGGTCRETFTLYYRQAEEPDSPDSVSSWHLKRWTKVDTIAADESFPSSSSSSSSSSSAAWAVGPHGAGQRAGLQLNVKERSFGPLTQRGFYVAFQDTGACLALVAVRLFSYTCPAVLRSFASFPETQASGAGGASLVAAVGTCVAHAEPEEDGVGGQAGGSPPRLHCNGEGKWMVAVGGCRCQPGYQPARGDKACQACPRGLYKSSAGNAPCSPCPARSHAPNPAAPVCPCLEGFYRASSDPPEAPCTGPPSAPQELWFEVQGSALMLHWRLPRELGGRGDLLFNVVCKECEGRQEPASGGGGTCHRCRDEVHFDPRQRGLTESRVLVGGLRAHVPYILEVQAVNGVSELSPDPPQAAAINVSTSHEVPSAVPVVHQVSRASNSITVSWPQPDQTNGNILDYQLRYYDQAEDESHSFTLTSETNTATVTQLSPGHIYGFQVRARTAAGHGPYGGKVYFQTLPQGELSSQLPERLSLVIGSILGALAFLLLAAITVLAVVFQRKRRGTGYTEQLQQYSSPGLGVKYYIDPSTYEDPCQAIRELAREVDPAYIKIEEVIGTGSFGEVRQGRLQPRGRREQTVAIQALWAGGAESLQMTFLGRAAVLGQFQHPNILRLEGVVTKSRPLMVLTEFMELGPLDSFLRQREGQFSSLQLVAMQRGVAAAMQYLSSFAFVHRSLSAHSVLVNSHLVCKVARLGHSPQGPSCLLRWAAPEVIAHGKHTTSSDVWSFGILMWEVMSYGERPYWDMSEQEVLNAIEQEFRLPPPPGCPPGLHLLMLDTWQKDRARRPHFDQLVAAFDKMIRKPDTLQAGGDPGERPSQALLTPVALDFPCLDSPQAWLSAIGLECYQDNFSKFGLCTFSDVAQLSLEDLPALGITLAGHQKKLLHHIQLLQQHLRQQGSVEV
In words: KINOMEscan. The following applies: 35 at 1 µM; read-out: % inhibition. Type of series: binding. The protocol:
as §1

Another series concerns the target T18, PAK7 (Homo sapiens, UniProt Q9P286).
T18 construct: purchased Eurofins DiscoverX (KINOMEscan)
Description: KINOMEscan. The series is classed as binding. The following applies: 35 at 1 µM; read-out: % inhibition. The protocol: as §1

In the next series the target is T19, MUSK (Homo sapiens, UniProt O15146).
T19 construct: purchased Eurofins DiscoverX (KINOMEscan)
T19 sequence (O15146 24-869): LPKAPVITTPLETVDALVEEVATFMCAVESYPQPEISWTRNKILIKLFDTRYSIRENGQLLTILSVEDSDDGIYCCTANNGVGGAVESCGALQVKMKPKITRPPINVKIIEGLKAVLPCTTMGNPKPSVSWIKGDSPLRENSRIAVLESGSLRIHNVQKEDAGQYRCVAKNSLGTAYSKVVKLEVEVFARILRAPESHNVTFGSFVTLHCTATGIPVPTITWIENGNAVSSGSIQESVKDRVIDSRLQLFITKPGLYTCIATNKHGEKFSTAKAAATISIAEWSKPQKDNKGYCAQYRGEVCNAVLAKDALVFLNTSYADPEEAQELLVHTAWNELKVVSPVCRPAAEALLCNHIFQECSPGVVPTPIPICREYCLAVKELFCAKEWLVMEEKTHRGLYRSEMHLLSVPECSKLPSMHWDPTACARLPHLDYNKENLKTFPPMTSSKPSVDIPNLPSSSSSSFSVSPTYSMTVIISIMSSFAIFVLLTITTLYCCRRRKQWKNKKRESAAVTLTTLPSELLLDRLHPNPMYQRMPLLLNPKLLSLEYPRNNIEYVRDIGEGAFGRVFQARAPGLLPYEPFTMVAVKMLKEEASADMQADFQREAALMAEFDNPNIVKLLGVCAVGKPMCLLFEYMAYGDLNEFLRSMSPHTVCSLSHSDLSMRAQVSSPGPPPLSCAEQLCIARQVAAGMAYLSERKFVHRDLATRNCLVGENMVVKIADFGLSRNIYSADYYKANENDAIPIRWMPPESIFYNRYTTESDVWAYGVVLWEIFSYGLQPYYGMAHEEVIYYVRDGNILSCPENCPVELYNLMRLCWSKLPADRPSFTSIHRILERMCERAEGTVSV
Description: KINOMEscan. Type of series: binding. The conditions noted are these: 35 at 1 µM; read-out: % inhibition. The protocol: as §1

The target of a further series is T20, DAPK1 (Homo sapiens, UniProt P53355).
T20 construct: purchased Eurofins DiscoverX (KINOMEscan)
In words: KINOMEscan. Type of series: binding. The following applies: 35 at 1 µM; read-out: % inhibition. The protocol:
as §1

The target in series [3] is T21, ABL1(T315I)-phosphorylated (Homo sapiens, UniProt P00519, T315I).
T21 construct: purchased Eurofins DiscoverX (KINOMEscan)
In words: KINOMEscan. Type of series: binding. The following applies: 35 at 1 µM; read-out: % inhibition. The protocol: as §1

The target of a further series is T22, ERBB4 (Homo sapiens, UniProt Q15303).
T22 construct: purchased Eurofins DiscoverX (KINOMEscan)
Description: KINOMEscan. The series is classed as binding. The following applies: 35 at 1 µM; read-out: % inhibition. The protocol:
as §1

The target in another series is T23, MYLK2 (Homo sapiens, UniProt Q9H1R3).
T23 construct: purchased Eurofins DiscoverX (KINOMEscan)
In words: KINOMEscan. Type of series: binding. The following applies: 35 at 1 µM; read-out: % inhibition. The protocol: as §1

The next series has as its target T24, PIP5K1C (Homo sapiens, UniProt O60331).
T24 construct: purchased Eurofins DiscoverX (KINOMEscan)
Description: KINOMEscan. The conditions noted are these: 35 at 1 µM; read-out: % inhibition. The series is classed as binding. The protocol: as §1

The next series deals with T25, IRAK4 (Homo sapiens, UniProt Q9NWZ3).
T25 construct: purchased Eurofins DiscoverX (KINOMEscan)
Description: KINOMEscan. The series is classed as binding. The following applies: 35 at 1 µM; read-out: % inhibition. The protocol: as §1

The mark [4] stands for this setting: male, C57BL/6, mouse, plasma, po, 10 mg/kg, 2 h pretreat 50 mpk ABT.
[5] abbreviates: male, C57BL/6, mouse, plasma, po, 10 mg/kg, without ABT.

T24 sequence (O60331 whole entry): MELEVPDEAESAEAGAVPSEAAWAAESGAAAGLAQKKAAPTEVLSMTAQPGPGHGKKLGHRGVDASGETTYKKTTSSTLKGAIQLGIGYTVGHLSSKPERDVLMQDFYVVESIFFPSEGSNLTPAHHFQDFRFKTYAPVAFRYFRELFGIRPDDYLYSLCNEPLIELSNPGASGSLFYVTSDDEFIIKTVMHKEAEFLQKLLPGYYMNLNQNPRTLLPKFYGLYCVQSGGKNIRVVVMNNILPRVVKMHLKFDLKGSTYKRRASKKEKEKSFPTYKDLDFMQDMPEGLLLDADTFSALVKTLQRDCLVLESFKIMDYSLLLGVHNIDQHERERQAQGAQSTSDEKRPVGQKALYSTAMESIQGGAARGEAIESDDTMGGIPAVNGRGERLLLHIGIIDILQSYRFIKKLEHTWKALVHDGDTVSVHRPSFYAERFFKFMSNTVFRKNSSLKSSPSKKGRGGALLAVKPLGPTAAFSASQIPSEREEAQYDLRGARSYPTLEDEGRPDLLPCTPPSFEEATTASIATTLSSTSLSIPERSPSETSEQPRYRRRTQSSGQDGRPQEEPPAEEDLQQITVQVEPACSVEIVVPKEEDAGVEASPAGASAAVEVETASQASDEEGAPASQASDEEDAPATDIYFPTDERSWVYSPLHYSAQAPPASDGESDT

For orientation: AUC(0-inf) means total exposure, with the tail of the curve extrapolated. What is called Tmax is the time from dosing to the highest level. Broadly, the Cmax is the highest concentration seen after dosing. `COc1cc2nccc(Nc3cc(OC)c(OC)c(OC)c3)c2cc1OC` [Compound 8]: the “Primary Metabolism Site” value in series [1] is recorded as “Aniline”. Further, the “fold higher exposure with ABT pretreatment” value in [2] (2 h pre-treatment with 50 mg/kg ABT vs without) is given as 8 fold. The “time plasma concentration sustained at 2-fold above the cellular IC50” value in series [2] (pretreatment with ABT) is recorded as greater than 8 h. Moreover, in series [2] (setting [4]), the AUC(0-inf) was found to be 569 ng·h/mL and the time to peak (Tmax) is 2 h. The Cmax in series [2] (male, C57BL/6, mouse, plasma, po, 10 mg/kg, 2 h pretreat 50 mpk ABT, read-out: Cmax) came out at 107 ng/mL. Further, in series [2] (setting [5]), the AUC(0-inf) was 71 ng·h/mL and the time to peak (Tmax) was 1 h. Moreover, the half-life in series [2] (male, mouse, plasma, without ABT, read-out: T1/2 in mice) was less than 1 h.
Take `Brc1ccc2nccc(Nc3ccc4cn[nH]c4c3)c2c1` [Compound 35, 6-Bromo-N-(1H-indazol-6-yl)quinolin-4-amine]: the activity at 1 µM on CSNK1E came out at 100%; at MAP3K1 it was 86%; at RET(V804M), 100%; on TNNI3K, 100%; on MLCK it was 100%; at CAMK2D it was 100%. The activity at 1 µM on PIK3CA(E542K), at BIKE, on MLK1, at YANK3, on MAP4K2 and on LYN was 100% in each case. In addition, the activity at 1 µM at RIOK2 was 100%; at STK35, 100%; on BLK, 96%; on SBK1, 99%; on EPHB6, 100%; at PAK7, 100%. The activity at 1 µM at MUSK amounted to 100%; at DAPK1, 100%; in [3], 95%; on ERBB4, 100%; on MYLK2, 100%; on PIP5K1C, 95%. Also, the activity at 1 µM on IRAK4 is 100%.

Source of the values: PMC6891286, “Towards the Development of an In vivo Chemical Probe for Cyclin G Associated Kinase (GAK)” (Molecules, 2019).
